Reference: publication PMC3686795, “CD38 Structure-Based Inhibitor Design Using the N1-Cyclic Inosine 5′-Diphosphate Ribose Template” (PLoS ONE, 2013)
Like-named read-outs stand apart in the source and are kept apart here. One block for each compound: values may come before it.

Legend:
[1] = biological target: T1, wild-type CD38 (cADPR hydrolase activity) (Homo sapiens, UniProt P28907, N100D/N164A/N209D/N219D); assay: Enzymatic assay for cADPR hydrolysis (inhibition of CD38-catalyzed cADPR hydrolysis, fluorimetric cycling assay); format: biochemical; conditions: for Fold improvement of IC50 over N1-cIDPR (cADPR hydrolysis): relative to N1-cIDPR, IC50 276 µM
T1 construct: Crystal structure of human CD38 extracellular domain; made in house
T1 sequence (P28907 45-300 N100D/N164A/N209D/N219D limits assumed): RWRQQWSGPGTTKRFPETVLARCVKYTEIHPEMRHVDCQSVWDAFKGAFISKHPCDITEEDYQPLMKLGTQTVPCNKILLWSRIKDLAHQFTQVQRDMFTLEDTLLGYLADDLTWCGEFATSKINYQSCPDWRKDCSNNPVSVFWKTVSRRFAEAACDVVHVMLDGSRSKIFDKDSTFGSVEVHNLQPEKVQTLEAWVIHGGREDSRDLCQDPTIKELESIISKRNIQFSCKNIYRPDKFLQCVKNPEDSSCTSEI
Description: The reaction was stopped by the addition of 150 mM HCl. The precipitated protein was filtered, and the pH was neutralized with Tris base. After diluting the mixture 20-fold, the concentration of the unhydrolyzed cADPR present in the diluted reaction mixture was assayed by the fluorimetric cycling assay as previously described.

[2] = system: sea urchin egg homogenate; design: method as in PMID 11535079; conditions: cited from earlier work
[3] = biological target: T2, CD38 (Homo sapiens, UniProt P28907, N100D/N164A/N209D/N219D); assay: Incubation with CD38, nucleotide profile by HPLC (stability towards cleavage); format: in vitro ADME; conditions: HPLC after 18 h; data not shown
T2 construct: Crystal structure of human CD38 extracellular domain; made in house
T2 sequence (P28907 45-300 N100D/N164A/N209D/N219D limits assumed): T1 sequence (P28907 45-300 N100D/N164A/N209D/N219D limits assumed)

[4] = system: Jurkat T-cells; design: method as in PMID 15932322; conditions: cited from earlier work
[5] = biological target: T3, CD38 NAD+ glycohydrolase activity (Homo sapiens, UniProt P28907, N100D/N164A/N209D/N219D); assay: Enzymatic assay for NAD+ hydrolase (NADase) activity of CD38; format: biochemical; conditions: 1 µM NAD+, 0.1 µg/mL CD38, 1 min, 20–24°C, pH 4.5; Figure S1; read-out: IC50, inhibition of NADase activity of CD38
T3 construct: Crystal structure of human CD38 extracellular domain; made in house
T3 sequence (P28907 45-300 N100D/N164A/N209D/N219D limits assumed): T1 sequence (P28907 45-300 N100D/N164A/N209D/N219D limits assumed)
Description: The reaction was stopped by addition of 150 mM HCl, filtered and assayed for NAD^+ by the fluorimetric cycling assay as previously described.

[6] = 1 µM cADPR, 2 µg/mL CD38, pH 4.5, inhibitor tested 0–1 mM, read-out: IC50, inhibition of cADPR hydrolysis by CD38
[7] = extrapolated beyond the tested range 0–1 mM, read-out: IC50, inhibition of cADPR hydrolysis, estimated by projection
[8] = 1 µM cADPR, 2 µg/mL CD38, 10 min, 20–24°C, pH 4.5, read-out: IC50, inhibition of cADPR hydrolysis by CD38

IC50 [1, 8]: 7.6 µM
SMILES: Nc1nc2c(=O)n([C@@H]3O[C@H](COP(=O)(O)O)[C@@H](O)[C@H]3O)cnc2[nH]1 [8-Amino N1-IMP, 8-amino N1-IMP]

IC50 [1, 8]: 201 µM
SMILES: O=c1c2nc(Br)[nH]c2ncn1[C@@H]1O[C@H](COP(=O)(O)O)[C@@H](O)[C@H]1O [8-Bromo N1-IMP]

Change in nucleotide profile after incubation with CD38 [3]: no change in the nucleotide profile
SMILES: O=c1c2nc(Br)n3c2ncn1[C@@H]1O[C@H](COP(=O)(O)OP(=O)(O)OC[C@H]2O[C@@H]3[C@H](O)[C@@H]2O)[C@@H](O)[C@H]1O [8-Bromo N1-cIDPR, 8-bromo N1-cIDPR]

IC50 [1, 6]: > 1000 µM | IC50 [1, 7]: ~1240 µM
SMILES: O=c1c2nc(I)[nH]c2ncn1[C@@H]1O[C@H](COP(=O)(O)O)[C@@H](O)[C@H]1O [8-Iodo N1-IMP, 8-iodo N1-IMP]

IC50 [1, 8]: 14 µM | Fold improvement of IC50 over N1-cIDPR (cADPR hydrolysis) [1]: ~20 fold
SMILES: O=c1c2nc[nH]c2ncn1[C@@H]1O[C@H](COP(=O)(O)O)[C@@H](O)[C@H]1O [N1-IMP, N1-inosine 5′-monophosphate]

More lines, now with the values behind:

SMILES: NCCCCNc1nc2c(=O)n3cnc2n1[C@@H]1O[C@H](COP(=O)(O)OP(=O)(O)OC[C@H]2O[C@@H]3[C@H](O)[C@@H]2O)[C@@H](O)[C@H]1O [8-(4-Aminobutane)amino N1-cIDPR, 8-(4-aminobutane)amino N1-cIDPR]
IC50 [1, 6]: > 1000 µM | IC50 [1, 7]: ~2000 µM

SMILES: N=c1c2ncn3c2ncn1[C@@H]1C[C@H](COP(=O)(O)OP(=O)(O)OC[C@H]2O[C@@H]3[C@H](O)[C@@H]2O)[C@@H](O)[C@H]1O [cADPcR, cyclic ADP-carbocyclic ribose, reference compound]
IC50 [1, 8]: 129 µM | Ca2+ release activity [2]: potent Ca^2+ release agent

SMILES: O=c1c2ncn3c2ncn1[C@@H]1O[C@H](COP(=O)(O)OP(=O)(O)OC[C@H]2O[C@@H]3[C@H](O)[C@@H]2O)[C@@H](O)[C@H]1O [N1-cIDPR, cyclic inosine 5′-diphosphoribose]
Ca2+ release compared with cADPR [4]: almost indistinguishable from Ca^2+ release induced by cADPR

SMILES: Nc1nc2c(=O)n3cnc2n1[C@@H]1O[C@H](COP(=O)(O)OP(=O)(O)OC[C@H]2O[C@@H]3[C@H](O)[C@@H]2O)[C@@H](O)[C@H]1O [8-Amino N1-cIDPR, 8-amino N1-cIDPR]
IC50 [1, 8]: 56 µM | Fold improvement of IC50 over N1-cIDPR (cADPR hydrolysis) [1]: over 5 fold | IC50 [5]: 21 µM
